Laboratory results: PMC3951875 (Bioorganic & medicinal chemistry letters, 2014)

Key:
αIIbβ3 receptor [1] = target: T1, αIIbβ3 receptor (Homo sapiens, UniProt P05106+P08514); assay: Platelet aggregation; format: cell-based
[2] = Biological stability in mouse plasma; format: in vitro ADME
[3] = Microsomal stability, rat; format: in vitro ADME; conditions: rat microsomes
[4] = Microsomal stability, mouse; format: in vitro ADME; conditions: mouse microsomes
Exposure = format: in vivo; conditions: for CO: IV, dose 0.03 mg, av. weight 27 g; for AUC / Cmax / Tmax / half-life: in vivo, 0.03 mg
hERG channel = hERG channel (Homo sapiens, UniProt Q12809); assay: hERG channel inhibition; format: biochemical; conditions: @ 25 μM; < 5% at all tested concentrations (0.008-25.0 μM)
Sequence of hERG channel (Q12809 whole entry): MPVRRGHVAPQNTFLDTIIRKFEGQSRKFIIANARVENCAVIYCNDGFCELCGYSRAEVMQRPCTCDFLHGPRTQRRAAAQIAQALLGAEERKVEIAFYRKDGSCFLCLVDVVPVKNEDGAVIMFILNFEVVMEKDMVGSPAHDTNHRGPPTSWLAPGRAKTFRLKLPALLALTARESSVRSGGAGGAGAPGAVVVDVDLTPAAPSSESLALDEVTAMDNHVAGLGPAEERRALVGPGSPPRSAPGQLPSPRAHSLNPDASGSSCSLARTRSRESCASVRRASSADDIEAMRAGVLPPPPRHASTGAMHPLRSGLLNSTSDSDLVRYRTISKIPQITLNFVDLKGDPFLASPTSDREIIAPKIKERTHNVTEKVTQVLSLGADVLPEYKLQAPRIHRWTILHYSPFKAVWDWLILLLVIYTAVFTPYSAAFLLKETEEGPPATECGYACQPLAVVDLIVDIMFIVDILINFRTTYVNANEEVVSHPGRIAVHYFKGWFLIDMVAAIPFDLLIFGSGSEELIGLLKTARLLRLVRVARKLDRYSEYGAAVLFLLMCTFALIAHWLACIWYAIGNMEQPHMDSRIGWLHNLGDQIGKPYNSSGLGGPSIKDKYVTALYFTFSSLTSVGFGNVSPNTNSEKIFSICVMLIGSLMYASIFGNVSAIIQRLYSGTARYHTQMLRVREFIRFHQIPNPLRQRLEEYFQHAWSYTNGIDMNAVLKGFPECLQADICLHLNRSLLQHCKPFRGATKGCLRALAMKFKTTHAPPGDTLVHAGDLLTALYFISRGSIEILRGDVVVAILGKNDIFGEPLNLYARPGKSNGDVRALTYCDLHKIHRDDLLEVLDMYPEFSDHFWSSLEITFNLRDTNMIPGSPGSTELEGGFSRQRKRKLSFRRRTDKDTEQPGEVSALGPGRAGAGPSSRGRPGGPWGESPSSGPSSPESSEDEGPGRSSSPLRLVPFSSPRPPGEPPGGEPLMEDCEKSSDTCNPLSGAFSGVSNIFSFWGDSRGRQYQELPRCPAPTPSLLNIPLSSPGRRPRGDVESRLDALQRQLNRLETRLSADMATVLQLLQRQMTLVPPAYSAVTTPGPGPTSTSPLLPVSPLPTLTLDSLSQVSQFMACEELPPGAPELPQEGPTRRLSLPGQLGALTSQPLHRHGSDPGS

[5] = Microsomal stability, human; format: in vitro ADME; conditions: human microsomes
Caco2 = assay: PAMPA and Caco2 permeability analyses; format: in vitro ADME; conditions: data not shown
αVβ3 receptor = αVβ3 receptor (Homo sapiens, UniProt P05106+P06756); assay: Activity versus the αVβ3 receptor; conditions: manuscript in preparation
Sequence of αVβ3 receptor (P06756 31-889 limits assumed): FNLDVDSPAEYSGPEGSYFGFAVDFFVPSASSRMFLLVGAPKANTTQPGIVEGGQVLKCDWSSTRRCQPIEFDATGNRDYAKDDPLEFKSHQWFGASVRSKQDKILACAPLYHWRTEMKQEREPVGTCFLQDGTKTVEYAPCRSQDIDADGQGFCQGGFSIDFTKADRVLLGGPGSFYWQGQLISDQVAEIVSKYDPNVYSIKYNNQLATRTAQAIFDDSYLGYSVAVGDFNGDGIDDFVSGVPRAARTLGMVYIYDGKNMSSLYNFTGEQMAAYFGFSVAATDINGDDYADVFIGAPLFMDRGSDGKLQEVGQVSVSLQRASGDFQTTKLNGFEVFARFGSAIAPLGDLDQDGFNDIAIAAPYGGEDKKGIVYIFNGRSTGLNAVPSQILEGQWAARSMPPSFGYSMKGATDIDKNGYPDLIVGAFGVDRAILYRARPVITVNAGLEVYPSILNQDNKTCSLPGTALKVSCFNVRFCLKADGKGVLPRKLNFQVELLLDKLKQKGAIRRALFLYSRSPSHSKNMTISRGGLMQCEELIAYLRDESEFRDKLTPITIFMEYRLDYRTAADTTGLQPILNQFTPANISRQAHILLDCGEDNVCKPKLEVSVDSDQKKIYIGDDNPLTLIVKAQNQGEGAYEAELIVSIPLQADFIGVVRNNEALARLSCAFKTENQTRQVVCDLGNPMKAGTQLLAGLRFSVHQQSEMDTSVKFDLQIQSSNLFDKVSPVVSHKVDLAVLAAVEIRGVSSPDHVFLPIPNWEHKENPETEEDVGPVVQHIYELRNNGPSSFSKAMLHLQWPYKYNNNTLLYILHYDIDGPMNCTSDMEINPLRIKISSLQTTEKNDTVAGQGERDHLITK
Sequence of αVβ3 receptor (P06756 891-1048 partner limits assumed): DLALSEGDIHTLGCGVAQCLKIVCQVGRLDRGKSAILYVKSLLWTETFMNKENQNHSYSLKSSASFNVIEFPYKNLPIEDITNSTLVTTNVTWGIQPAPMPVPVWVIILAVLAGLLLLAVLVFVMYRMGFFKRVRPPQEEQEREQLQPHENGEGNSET
Sequence of αVβ3 receptor (P05106 27-788): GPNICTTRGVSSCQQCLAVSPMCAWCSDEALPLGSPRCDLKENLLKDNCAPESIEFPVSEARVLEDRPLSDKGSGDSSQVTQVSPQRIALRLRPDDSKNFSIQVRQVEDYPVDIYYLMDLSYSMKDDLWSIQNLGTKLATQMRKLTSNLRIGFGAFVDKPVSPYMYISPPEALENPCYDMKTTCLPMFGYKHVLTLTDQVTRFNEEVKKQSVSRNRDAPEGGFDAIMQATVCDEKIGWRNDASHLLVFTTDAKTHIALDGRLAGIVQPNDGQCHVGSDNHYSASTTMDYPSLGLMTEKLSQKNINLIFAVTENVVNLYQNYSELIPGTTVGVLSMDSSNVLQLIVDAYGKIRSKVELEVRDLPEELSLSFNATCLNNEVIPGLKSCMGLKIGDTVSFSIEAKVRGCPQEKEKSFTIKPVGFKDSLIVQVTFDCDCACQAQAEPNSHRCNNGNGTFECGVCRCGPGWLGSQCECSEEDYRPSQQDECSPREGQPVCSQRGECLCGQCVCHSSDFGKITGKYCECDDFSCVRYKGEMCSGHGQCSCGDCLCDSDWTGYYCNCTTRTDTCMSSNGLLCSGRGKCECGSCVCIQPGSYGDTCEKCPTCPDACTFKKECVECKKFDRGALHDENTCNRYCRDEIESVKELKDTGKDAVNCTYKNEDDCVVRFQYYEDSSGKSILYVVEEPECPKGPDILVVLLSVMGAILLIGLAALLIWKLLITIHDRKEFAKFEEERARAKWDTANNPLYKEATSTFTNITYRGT

phospholipidosis = assay: Drug-induced phospholipidosis; format: cell-based; conditions: data not shown
αIIbβ3 receptor [6] = target: T1, αIIbβ3 receptor; assay: β3 conformation by binding of a conformation-specific monoclonal antibody
αIIbβ3 receptor [7] = target: T1, αIIbβ3 receptor; assay: Priming of the receptor for fibrinogen binding; conditions: manuscript in preparation
Long-term solubilization = format: physicochemical
[8] = Chemical stability as a solution; format: physicochemical; conditions: both DMSO-based and aqueous

T1 sequence (P08514 32-887 limits assumed): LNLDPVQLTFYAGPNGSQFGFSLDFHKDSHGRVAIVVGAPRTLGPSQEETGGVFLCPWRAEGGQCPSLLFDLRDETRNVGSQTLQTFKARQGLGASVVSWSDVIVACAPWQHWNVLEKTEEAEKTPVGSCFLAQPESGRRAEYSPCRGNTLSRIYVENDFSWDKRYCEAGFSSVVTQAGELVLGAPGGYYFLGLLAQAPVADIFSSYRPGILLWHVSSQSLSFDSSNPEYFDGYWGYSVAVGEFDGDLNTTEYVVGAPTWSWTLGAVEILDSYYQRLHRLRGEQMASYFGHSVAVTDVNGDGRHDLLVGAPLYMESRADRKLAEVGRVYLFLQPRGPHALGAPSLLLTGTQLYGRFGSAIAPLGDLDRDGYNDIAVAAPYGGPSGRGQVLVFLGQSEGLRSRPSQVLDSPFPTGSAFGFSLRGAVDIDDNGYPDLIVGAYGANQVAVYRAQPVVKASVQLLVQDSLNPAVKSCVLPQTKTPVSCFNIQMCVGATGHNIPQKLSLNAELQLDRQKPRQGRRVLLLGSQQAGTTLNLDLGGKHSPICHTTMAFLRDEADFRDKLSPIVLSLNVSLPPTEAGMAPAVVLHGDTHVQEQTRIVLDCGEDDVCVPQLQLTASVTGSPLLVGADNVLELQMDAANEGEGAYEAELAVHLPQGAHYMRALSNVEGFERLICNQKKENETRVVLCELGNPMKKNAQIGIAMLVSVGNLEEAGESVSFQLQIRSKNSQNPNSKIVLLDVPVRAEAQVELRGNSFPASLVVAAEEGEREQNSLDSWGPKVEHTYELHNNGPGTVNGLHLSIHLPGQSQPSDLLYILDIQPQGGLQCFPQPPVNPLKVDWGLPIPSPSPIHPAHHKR
T1 sequence (P08514 891-1039 partner limits assumed): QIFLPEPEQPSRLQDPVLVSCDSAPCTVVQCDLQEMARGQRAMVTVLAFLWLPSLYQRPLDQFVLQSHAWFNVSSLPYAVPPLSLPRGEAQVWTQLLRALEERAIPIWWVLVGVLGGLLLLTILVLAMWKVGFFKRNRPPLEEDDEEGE
T1 sequence (P05106 27-788): as the sequence (P05106 27-788) above

| Biological Stability ([2]; 15 min.) | Biological Stability ([2]; 60 min.) | Biological Stability ([2]; 120 min.) | CO (Exposure) [µg/mL] | AUC (Exposure; ip) [ng·h/mL] | Cmax (Exposure; ip) [ng/mL] | Tmax (Exposure; ip) [min] | AUC (Exposure; iv) [ng·h/mL] | half-life (Exposure; iv) [min] | Compound | hERG Inhibition (hERG channel) [% @ 25 μM] | PAMPA and Caco2 permeability analyses (Caco2) | further results |
| --- | --- | --- | --- | --- | --- | --- | --- | --- | --- | --- | --- | --- |
|  |  |  |  |  |  |  |  |  | CCc1nn2c(=O)cc(N3CCNCC3)nc2s1 [compound 1] |  |  | IC50 (αIIbβ3 receptor [1]): 4 to 10 µM |
| 97.5 (15 min.) | 93.3 (60 min.) | 84.5 (120 min.) | 1.354 | 45 | 222 | 4.8 | 123 | 4.2 | NCC(=O)Nc1cccc(-c2nn3c(=O)cc(N4CCNCC4)nc3s2)c1 [compound 2] | < 5 | unlikely that either agent possesses high oral bioavailability | t1/2 [3]: > det. limit (rat); t1/2 [4]: > det. limit (mouse); t1/2 [5]: > det. limit (human) |
| 100 (15 min.) | 99.5 (60 min.) | 91.7 (120 min.) | 1.145 | 87 | 405 | 4.8 | 137 | 4.2 | NCC(=O)Nc1cncc(-c2nn3c(=O)cc(N4CCNCC4)nc3s2)c1 [compound 13] | < 5 | unlikely that either agent possesses high oral bioavailability | activity versus the αVβ3 receptor (αVβ3 receptor): does not possess any activity; induction of phospholipidosis (phospholipidosis): No appreciable induction of phospholipidosis; change of β3 conformation (αIIbβ3 receptor [6]): nor changes the β3 conformation; priming of the receptor for fibrinogen binding (αIIbβ3 receptor [7]): neither primes the receptor for fibrinogen binding; solubility (Long-term solubilization): ≥ 60 mg/mL |
|  |  |  |  |  |  |  |  |  | NCC(=O)Nc1cc(-c2nn3c(=O)cc(N4CCNCC4)nc3s2)ccn1 [compound 14] |  |  | chemical stability as a solution [8]: poor chemical stability |
